{"source": "patent US20150315218A1", "about": "“SALTS OF PRODRUGS OF PIPERAZINE AND SUBSTITUTED PIPERIDINE ANTIVIRAL AGENTS” (Bristol-Myers Squibb Company, priority 2004, published 2015)", "key": {"[1]": {"test": "IV and PO pharmacokinetic studies of prodrug salts (Iab, Ibb, Icb) in the rat, with historical parent data", "type": "in vivo, Sprague-Dawley rats", "settings": "for half-life: after IV prodrug, read-out: t1/2 (hr), IV (converted); for clearance / Vd: prodrug after IV administration; for clearance: read-out: CLtot (mL/min/kg), IV; for Vd: read-out: Vdss (L/kg), IV", "summary_of_the_method": "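Male Sprague-Dawley rats (300-350 g, jugular-cannulated; fasted overnight for PO) received mono-lysine prodrug salts in distilled water: IV bolus over 0.5 min at 1.4 mg/kg free acid, PO gavage at 7.9 mg/kg (Iab) or 6.9 mg/kg (Icb) free acid, n=3. Plasma parameters by non-compartmental analysis; oral bioavailability from dose-normalized AUC ratio.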"}, "[2]": {"test": "Stability (hydrolysis) of prodrug in fresh serum (rat)", "settings": "for Iab / IVa Formed: Rat Serum; for Ibb: Ibb in fresh rat serum, 37° C., n = 2", "method": "The stability of Iab was studied in fresh blood and serum from rat, dog, monkey and human (n=2). The blood was collected in vacutainers containing K2EDTA (Becton Dickinson, Franklin Lakes, N.J.). The serum was collected in vacutainers containing no anticoagulant. Iab was incubated at a starting concentration of approximately 10 μM for 60-90 min at 37° C. Serial samples were taken at the pre-determined times. Aliquots of blood samples (200 μL) were first mixed with 100 μL of water followed by 400 μL of acetonitrile. The serum samples (50 μL) were added into microtainers containing K2EDTA (Becton Dickinson, Franklin Lakes, N.J.) followed by the addition of 100 μL of acetonitrile. The supernatant was analyzed for both Iab and IVa by LC/MS/MS. The stability of Ibb was studied in fresh blood and serum from rat, dog, monkey and human (n=2). The blood was collected in vacutainers containing K2EDTA (Becton Dickinson, Franklin Lakes, N.J.). The serum was collected in vacutainers containing no anticoagulant. Ibb was incubated at a starting concentration of approximately 15 μM for 90 min at 37° C. Serial samples were taken at the pre-determined times. Aliquots of blood samples (200 μL) were first mixed with 100 μL of water followed by 400 μL of acetonitrile. The serum samples (50 μL) were added into microtainers containing K2EDTA (Becton Dickinson, Franklin Lakes, N.J.) followed by the addition of 100 μL of acetonitrile. […] The stability of Icb was studied in fresh blood and serum from rat, dog, monkey and human (n=2). The blood was collected in vacutainers containing K2EDTA (Becton Dickinson, Franklin Lakes, N.J.). The serum was collected in vacutainers containing no anticoagulant. Icb was incubated at a starting concentration of approximately 10 μM for 90 min at 37° C. Serial samples were taken at the pre-determined times. Aliquots of blood samples (200 μL) were first mixed with 100 μL of water followed by 400 μL of acetonitrile. The serum samples (50 μL) were added into microtainers containing K2EDTA (Becton Dickinson, Franklin Lakes, N.J.) followed by the addition of 100 μL of acetonitrile."}, "[3]": {"test": "Single-dose toxicokinetic and tolerability study of prodrugs in dogs", "type": "in vivo, dog", "settings": "for clinical signs, body weight and food consumption / emesis: oral prodrug", "summary_of_the_method": "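Female dogs (two/group) received prodrug Iab orally once daily at 24, 90 or 240 mg/kg (free acid) as aqueous solution or dry-filled capsules, one-week washouts between doses. Ibb and Icb given to one dog/sex/group as capsules, then aqueous 25 mg/kg or capsules 46 or 125 mg/kg BID. Clinical signs, body weight, food intake and plasma toxicokinetics monitored.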"}, "[4]": {"test": "Single-dose oral toxicokinetic study of prodrugs in rats", "type": "in vivo, rat", "settings": "for half-life / AUC / Cmax: rat, plasma; for C24 h: mean", "summary_of_the_method": "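Male rats, three per group, received a single oral gavage dose of prodrug salt dissolved in water. Doses were 16, 72 or 267 mg/kg (Iab), 19, 64 or 236 mg/kg (Ibb), and 5, 25 or 200 mg/kg (Icb), all as free acid. Plasma toxicokinetics of prodrug and parent IVa were followed in individual animals.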"}, "[5]": {"settings": "male, Sprague-Dawley, plasma, analyte = label"}}, "note": "Entries after “also recorded” stand apart in the source; their conditions may differ. Structures can show the parent of a compound that is named as a salt."}
{"smiles": "COc1cnc(OC)c2c1c(C(=O)C(=O)N1CCN(C(=O)c3ccccc3)CC1)cn2COP(=O)(O)O", "note": "[Iab, {3-[(4-benzoylpiperazin-1-yl)(oxo)acetyl]-4,7-dimethoxy-1H-pyrrolo[2,3-c]pyridin-1-yl}methyl dihydrogen phosphate, L-lysine salt (1:1)]", "values": [{"measurement": "AUC", "setting": "[1]; male, Sprague-Dawley, plasma, after IV prodrug (~1 mg/kg parent equivalent), analyte = label, read-out: AUCtot (μM·hr), IV", "result": "3.3 ± 1", "unit": "µM·h"}, {"measurement": "half-life", "setting": "[1]; [5]", "result": 0.16, "unit": "h"}, {"measurement": "clearance", "setting": "[1]; male, Sprague-Dawley, plasma", "result": 14, "unit": "mL/min/kg"}, {"measurement": "Vd", "setting": "[1]; male, Sprague-Dawley, plasma", "result": 0.12, "unit": "L/kg"}, {"measurement": "Iab / IVa Formed", "setting": "[2]; 37°C, 0 min", "result": 6.8, "unit": "µM"}, {"measurement": "Iab / IVa Formed", "setting": "[2]; 15 min", "result": 5.8, "unit": "µM"}, {"measurement": "Iab / IVa Formed", "setting": "[2]; 30 min", "result": 5.4, "unit": "µM"}, {"measurement": "Iab / IVa Formed", "setting": "[2]; 45 min", "result": 4.9, "unit": "µM"}, {"measurement": "Iab / IVa Formed", "setting": "[2]; 60 min", "result": 4.3, "unit": "µM"}, {"measurement": "Iab / IVa Formed", "setting": "[2]; 90 min", "result": 3.3, "unit": "µM"}, {"measurement": "percentage of estimated total dose lost in vomit", "setting": "[3]; Dog #1201 (90 mg/kg Iab)", "result": "< 1", "unit": "%"}, {"measurement": "percentage of estimated total dose lost in vomit", "setting": "[3]; Dog #2201 (240 mg/kg Iab)", "result": "≈ 90%"}, {"measurement": "percentage of estimated total dose lost in vomit", "setting": "[3]; Dog #2202 (240 mg/kg Iab)", "result": "≈ 9%"}, {"measurement": "clinical signs, body weight and food consumption", "setting": "[3]; dogs", "result": "Other than emesis, there were no clinical signs observed, and there no effects on body weight and food consumption"}, {"measurement": "emesis", "setting": "[3]; dogs", "result": "Emesis was observed at about 30 minutes after dosing in both dogs given 90 mg/kg; also recorded: Emesis was observed in Dogs #1201, #2201, and #2202 about 1 hour after dosing"}, {"measurement": "concentration at 1 h", "setting": "[3]; female, dog, plasma, oral, dogs, 1 hour post dose, Iab 90-240 mg/kg phase, read-out: prodrug detected in plasma", "result": "5 to 49", "unit": "nM"}, {"measurement": "concentration at 2 h", "setting": "[3]; female, dog, plasma, oral, dogs, 2 hours post dose, Iab 90-240 mg/kg phase, read-out: prodrug detected in plasma", "result": "5 to 6", "unit": "nM"}, {"measurement": "prodrug in the plasma samples", "setting": "[3]; initial phase, Iab 24 or 90 mg/kg", "result": "not detected"}, {"measurement": "half-life", "setting": "[4]; CD, male rats, Iab 16 mg/kg PO, analyte = label, read-out: T½ (converted)", "result": 38.4, "unit": "min"}, {"measurement": "half-life", "setting": "[4]; CD, male rats, Iab 72 mg/kg PO, analyte = label, read-out: T½ (converted)", "result": 22.2, "unit": "min"}, {"measurement": "AUC", "setting": "[4]; CD, male rats, Iab 267 mg/kg PO, AUC from zero to time of last quantifiable sample, read-out: AUC", "result": 0.057, "unit": "µM·h"}, {"measurement": "half-life", "setting": "[4]; CD, male rats, Iab 267 mg/kg PO, analyte = label, read-out: T½ (converted)", "result": 2.7, "unit": "min"}, {"measurement": "Cmax", "setting": "[4]; CD, male rats, single oral dose Iab 16 mg/kg (13 mg/kg IVa molar equiv.), water, analyte = label", "result": 68, "unit": "nM"}, {"measurement": "Cmax", "setting": "[4]; CD, male rats, single oral dose Iab 72 mg/kg (57 IVa equiv.), analyte = label", "result": 95, "unit": "nM"}, {"measurement": "Cmax", "setting": "[4]; CD, male rats, single oral dose Iab 267 mg/kg (211 IVa equiv.), analyte = label", "result": 110, "unit": "nM"}, {"measurement": "C24 h (μM)", "setting": "[4]; male rats, Iab 16 mg/kg PO, analyte = label", "result": "<LLQ^1"}, {"measurement": "C24 h (μM)", "setting": "[4]; male rats, Iab 72 mg/kg PO, analyte = label", "result": "<LLQ"}, {"measurement": "C24 h (μM)", "setting": "[4]; male rats, Iab 267 mg/kg PO, analyte = label", "result": "<LLQ"}, {"measurement": "AUC", "setting": "[4]; male, CD, po, 16 mg/kg, read-out: AUC", "result": 0.02, "unit": "µM·h"}, {"measurement": "AUC", "setting": "[4]; male, CD, po, 72 mg/kg, read-out: AUC", "result": 0.049, "unit": "µM·h"}, {"measurement": "plasma AUC of the prodrug relative to that of the parent", "setting": "[4]; rats, single oral dose of Iab", "result": "≤ 0.03", "unit": "%"}]}
{"smiles": "O=C(C(=O)N1CCN(C(=O)c2ccccc2)CC1)c1cn(COP(=O)(O)O)c2c(-n3ccnn3)ncc(F)c12", "note": "[Ibb, [3-[(4-benzoylpiperazin-1-yl)(oxo)acetyl]-4-fluoro-7-(1H-1,2,3-triazol-1-yl)-1H-pyrrolo[2,3-c]pyridin-1-yl]methyl dihydrogen phosphate, L-lysine salt (1:1)]", "values": [{"measurement": "prodrug detected in plasma after oral administration", "setting": "[1]; LLQ = 5 nM", "result": "< 10", "unit": "nM"}, {"measurement": "half-life", "setting": "[1]; [5]", "result": 0.18, "unit": "h"}, {"measurement": "Cmax", "setting": "[1]; male, Sprague-Dawley, plasma, po, 6.6 mg/kg, read-out: Cmax", "result": "8 ± 3", "unit": "nM"}, {"measurement": "Tmax", "setting": "[1]; male, Sprague-Dawley, plasma, po, 6.6 mg/kg, read-out: Tmax", "result": 15, "unit": "min"}, {"measurement": "clearance", "setting": "[1]; male, Sprague-Dawley, plasma", "result": 19, "unit": "mL/min/kg"}, {"measurement": "Vd", "setting": "[1]; male, Sprague-Dawley, plasma", "result": 0.1, "unit": "L/kg"}, {"measurement": "Ibb", "setting": "[2]; 0 min", "result": 12, "unit": "µM"}, {"measurement": "Ibb", "setting": "[2]; 15 min", "result": 9.4, "unit": "µM"}, {"measurement": "Ibb", "setting": "[2]; 30 min", "result": 9.2, "unit": "µM"}, {"measurement": "Ibb", "setting": "[2]; 45 min", "result": 9.4, "unit": "µM"}, {"measurement": "Ibb", "setting": "[2]; 60 min", "result": 9.3, "unit": "µM"}, {"measurement": "Ibb", "setting": "[2]; 90 min", "result": 9.0, "unit": "µM"}, {"measurement": "clinical signs, body weight and food consumption", "setting": "[3]; dogs", "result": "Other than emesis, there were no clinical signs observed, and there were no effects on body weight and food consumption"}, {"measurement": "emesis", "setting": "[3]; dogs", "result": "emesis (white, streaked with red that contained capsule remnants) was observed at about 0.5-1.25 hours after dosing in all dogs given ≧92 mg/kg QD; also recorded: emesis (white or brown) was observed within 2 hours after dosing in all dogs given ≧46 mg/kg BID"}, {"measurement": "C24 h", "setting": "[4]; male rats, single oral dose Ibb 19 mg/kg (IVb molar equiv. 15 mg/kg)", "result": "<LLQ"}, {"measurement": "C24 h", "setting": "[4]; male rats, single oral dose Ibb 64 mg/kg (IVb molar equiv. 51 mg/kg)", "result": "<LLQ"}, {"measurement": "C24 h", "setting": "[4]; male rats, single oral dose Ibb 236 mg/kg (IVb molar equiv. 190 mg/kg)", "result": "<LLQ"}, {"measurement": "Cmax", "setting": "[4]; male, Sprague Dawley, po, 19 mg/kg", "result": 27, "unit": "nM"}, {"measurement": "AUC", "setting": "[4]; male, Sprague Dawley, po, 19 mg/kg, read-out: AUC from zero to last time point", "result": 0.03, "unit": "µM·h"}, {"measurement": "half-life", "setting": "[4]; male, Sprague Dawley, po, 19 mg/kg, read-out: T1/2 (converted)", "result": 78, "unit": "min"}, {"measurement": "Cmax", "setting": "[4]; male, Sprague Dawley, po, 64 mg/kg", "result": 140, "unit": "nM"}, {"measurement": "AUC", "setting": "[4]; male, Sprague Dawley, po, 64 mg/kg, read-out: AUC from zero to last time point", "result": 0.18, "unit": "µM·h"}, {"measurement": "half-life", "setting": "[4]; male, Sprague Dawley, po, 64 mg/kg, read-out: T1/2 (converted)", "result": 276, "unit": "min"}, {"measurement": "Cmax", "setting": "[4]; male, Sprague Dawley, po, 236 mg/kg", "result": 250, "unit": "nM"}, {"measurement": "AUC", "setting": "[4]; male, Sprague Dawley, po, 236 mg/kg, read-out: AUC from zero to last time point", "result": 0.49, "unit": "µM·h"}, {"measurement": "half-life", "setting": "[4]; male, Sprague Dawley, po, 236 mg/kg, read-out: T1/2 (converted)", "result": 216, "unit": "min"}]}
